Reference: PMC11088877, “AMP-activated protein kinase can be allosterically activated by ADP but AMP remains the key activating ligand” (Biochemical Journal, 2024)
Several values for one entry are separate records, joined by “and”; a condition that tells them apart may be missing. Equal entries are not always repeated.

Assays:
[1] = biological target: T1, human α2β2γ1 complex, CBS3 mutant (V276G/L277G) (Homo sapiens, UniProt P54619+P54646, L277G/V276G); assay: AMPK activation and Thr172 phosphorylation by the LKB1 complex, CBS3 mutant; format: biochemical; conditions: 300 µM nucleotide, 200 µM ATP
T1 construct: made in house; host or cells: Escherichia coli
T1 sequence (P54619 whole entry V276G/L277G): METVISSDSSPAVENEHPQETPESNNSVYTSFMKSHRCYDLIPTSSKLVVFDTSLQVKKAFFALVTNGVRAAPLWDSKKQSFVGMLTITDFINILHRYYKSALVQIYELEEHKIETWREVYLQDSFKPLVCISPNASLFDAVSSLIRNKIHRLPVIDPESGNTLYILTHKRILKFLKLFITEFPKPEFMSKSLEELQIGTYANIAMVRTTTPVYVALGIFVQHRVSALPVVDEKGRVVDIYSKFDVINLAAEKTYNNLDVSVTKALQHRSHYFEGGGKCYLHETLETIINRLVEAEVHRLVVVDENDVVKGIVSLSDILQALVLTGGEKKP
T1 sequence (P54646 whole entry): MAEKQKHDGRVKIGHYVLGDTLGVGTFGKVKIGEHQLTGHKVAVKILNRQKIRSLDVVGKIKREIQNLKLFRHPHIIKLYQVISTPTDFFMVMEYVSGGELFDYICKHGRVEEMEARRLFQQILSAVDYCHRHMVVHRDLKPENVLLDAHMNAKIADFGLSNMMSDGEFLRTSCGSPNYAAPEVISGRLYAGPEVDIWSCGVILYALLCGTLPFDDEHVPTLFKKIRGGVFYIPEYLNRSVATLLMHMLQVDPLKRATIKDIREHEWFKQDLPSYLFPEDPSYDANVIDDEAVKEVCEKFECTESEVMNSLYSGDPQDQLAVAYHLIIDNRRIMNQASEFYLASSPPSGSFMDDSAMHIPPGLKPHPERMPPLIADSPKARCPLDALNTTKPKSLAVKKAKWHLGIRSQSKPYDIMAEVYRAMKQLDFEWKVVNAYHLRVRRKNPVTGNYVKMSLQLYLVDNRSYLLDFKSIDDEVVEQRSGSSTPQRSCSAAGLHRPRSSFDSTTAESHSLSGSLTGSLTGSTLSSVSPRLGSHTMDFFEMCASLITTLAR
T1 sequence (O43741 whole entry partner): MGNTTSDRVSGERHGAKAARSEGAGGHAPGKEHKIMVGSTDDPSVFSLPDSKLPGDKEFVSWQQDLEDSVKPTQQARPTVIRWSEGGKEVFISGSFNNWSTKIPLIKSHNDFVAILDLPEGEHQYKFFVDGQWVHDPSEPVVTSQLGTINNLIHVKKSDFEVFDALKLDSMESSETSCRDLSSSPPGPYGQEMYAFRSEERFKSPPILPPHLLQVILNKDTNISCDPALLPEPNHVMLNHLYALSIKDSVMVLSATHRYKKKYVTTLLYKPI
Protocol: The relative roles of the three CBS sites in the other two mechanisms of activation of AMPK by AMP or ADP, i.e. promotion of Thr172 phosphorylation by LKB1, and protection against Thr172 dephosphorylation by protein phosphatases, have not been examined previously. As expected, incubation of the α2β2γ1 AMPK complex with a fixed, limiting amount of purified LKB1:STRADα:MO25α complex in the presence of 200 µM Mg.ATP^2− caused a large degree of activation (Figure 5A) and phosphorylation (Figure 5B) of AMPK (unphosphorylated α2β2γ1 complex), which were stimulated more than 2-fold by 300 µM AMP and 1.6-fold by 300 µM ADP.
Figure 5. Effects of AMP or ADP on AMPK activation and Thr172 phosphorylation by the LKB1:STRADα:MO25α complex. Unphosphorylated human α2β2γ1 complexes (WT, or with L129D/V130D, V276G/L277G or I312G mutations affecting CBS1, CBS3 or CBS4 respectively) were incubated with ATP and a fixed concentration of the LKB1:STRADα:MO25α complex in the presence or absence of AMP or ADP (both 300 µM), as described in the Materials and methods section. After the incubation aliquots were withdrawn for (A) AMPK assay or (B) Western blots. […] For (B), due to a limit on the number of lanes that could be run on one gel, single replicates from the triplicate assays were analysed. […]

[2] = system: rat liver AMPK; assay: Allosteric activation and inhibition of native rat liver AMPK by AMP and ADP (SAMS peptide kinase assay); format: biochemical; set-up: IC50/EC50: unit not given beside the values; conditions: for maximal extent of activation: Discussion (for ADP: rat liver AMPK and human α2β2γ1 complex); for effect of CD73 in the assay on allosteric activation by the nucleotide: AMP 0.3 mM or ADP 1 mM, CD73 550 ng
Excerpt: To study allosteric effects, we initially used a preparation of native rat liver AMPK [4]. While not homogeneous, this preparation has a high specific kinase activity (1.3 µmol/min/mg) and is a combination of the α1, α2, β1, β2 and γ1 subunit isoforms (Supplementary Figure S1). Being from a mammalian source both β subunit isoforms would be N-myristoylated and we have shown previously that the preparation is not contaminated with any protein phosphatases that dephosphorylate Thr172 [4]. We assessed the potential allosteric effects of both AMP and ADP at three different concentrations of ATP. We maintained Mg^2+ ions at a constant 4.8 mM excess above total ATP, a design that ensures that the concentration of the Mg.ATP^2− complex varies as a fixed proportion of total ATP [19].
As previously reported, with AMP we obtained bell-shaped curves due to activation at low concentrations combined with inhibition at higher concentrations (Figure 1). We have previously shown that the allosteric activation is due to binding of AMP to one or more of the regulatory sites on the γ subunit, whereas the inhibition is due to binding of AMP at the catalytic site within the α subunit kinase domain [4]. Consistent with the fact that ATP competes with AMP at both sites, as the ATP concentration was progressively raised from 0.2 to 1.0 and 5 mM, the bell-shaped curves shifted to the right, towards higher concentrations of AMP. The data were fitted to an equation for activation at one site and inactivation at a second site, as detailed in the legend to Figure 1. The best-fit parameters are shown in Supplementary Table S1, and these values were used to draw the curves in Figure 1A–C; the best-fit estimates for EC50 and IC50 are indicated by dashed vertical lines, faint lines for AMP and heavier lines for ADP.
Figure 1. Allosteric activation of rat liver AMPK by AMP and ADP at three different concentrations of ATP. (A) 200 µM ATP; (B) 1 mM ATP; (C) 5 mM ATP. [Mg^2+] was maintained at a constant excess of 4.8 mM above [ATP] as recommended previously. Results (mean ± SD, n = 2) were fitted to the equation: Y = 1 + (((Activation-1) × X)/(EC50 + X))-(((activation) × X)/(IC50 + X)), where Y is the activity, X is the concentration of AMP or ADP, Activation is the extrapolated maximal activation by AMP or ADP, EC50 is the concentration of AMP or ADP causing half-maximal activation, and IC50 is the concentration of AMP or ADP causing half-maximal inhibition. The dashed vertical lines show the estimated EC50 and IC50 values, faint lines for AMP and bold lines for ADP. A reliable estimate of EC50 could not be computed for ADP at 0.2 mM ATP (graph (A)). Best-fit values of all parameters used to generate the curves are listed in Supplementary Table S1.
Figure 2. Allosteric activation of rat liver AMPK by AMP and ADP in the presence and absence of the nucleotidase CD73. Allosteric activation was assessed as in Figure 1 with a single fixed concentration of AMP or ADP (0.3 or 1 mM respectively) in the presence or absence of CD73 (550 ng). Statistical significance of differences in results (mean ± SEM, n = 3) were assessed by two-way ANOVA. Effect of nucleotide: ****P < 0.0001; effect of CD73: ^††††P < 0.0001, ns, not significant.
AMPK assays measured the transfer of radioactivity from [γ-^33P]ATP to a peptide substrate, which was separated from unreacted ATP by binding to P81 paper. This assay was described previously except that we used [γ-^33P] rather than [γ-^32P]ATP. In some assays (specified in Figure legends) the concentration of ATP was increased from 0.2 to 1 or 5 mM ATP, with MgCl2 concentrations maintained at a constant 4.8 mM excess above the concentration of ATP [19]. Where allosteric activation by AMP or ADP was being studied, we used the SAMS peptide as substrate. For all other assays the AMARA peptide was used.

Nc1ncnc2c1ncn2[C@@H]1O[C@H](COP(=O)(O)OP(=O)(O)O)[C@@H](O)[C@H]1O [ADP]
effect of nucleotide on activation/phosphorylation by LKB1 in the mutant [1]: abolished | maximal extent of activation ([2]; 5 mM ATP): ≈ 1.5 fold | Activation (extrapolated maximal activation) ([2]; rat liver AMPK, 0.2 mM ATP): no activation was detectable and none | IC50 ([2]; rat liver AMPK, 0.2 mM ATP): 400 µM | observed maximal extent of activation above basal ([2]; rat liver AMPK, 1 mM ATP): ≈ 25% | Activation (extrapolated maximal activation) ([2]; rat liver AMPK, 1.0 mM ATP): 2.4 fold and 2.4 (1.8 -??) fold | EC50 ([2]; rat liver AMPK, 1.0 mM ATP): 122 µM | IC50 ([2]; rat liver AMPK, 1.0 mM ATP): 690 µM | IC50/EC50 ([2]; rat liver AMPK, 1.0 mM ATP): 6 and 5.7 | observed maximal extent of activation above basal ([2]; rat liver AMPK, 5 mM ATP): ≈ 50% | Activation (extrapolated maximal activation) ([2]; rat liver AMPK, 5.0 mM ATP): 2.0 fold and 2.0 (1.7 -2.8) fold | EC50 ([2]; rat liver AMPK, 5.0 mM ATP): 220 µM | IC50 ([2]; rat liver AMPK, 5.0 mM ATP): 4000 µM | IC50/EC50 ([2]; rat liver AMPK, 5.0 mM ATP): 18 | effect of CD73 in the assay on allosteric activation by the nucleotide ([2]; rat liver AMPK): did not significantly affect

Nc1ncnc2c1ncn2[C@@H]1O[C@H](COP(=O)(O)O)[C@@H](O)[C@H]1O [AMP]
effect of nucleotide on activation/phosphorylation by LKB1 in the mutant [1]: abolished | maximal extent of activation ([2]; 5 mM ATP): 3 fold | Activation (extrapolated maximal activation) ([2]; rat liver AMPK, 0.2 mM ATP): 2.9 (2.8 -3.0) fold | EC50 ([2]; rat liver AMPK, 0.2 mM ATP): 6.4 µM | IC50 ([2]; rat liver AMPK, 0.2 mM ATP): 1700 µM | IC50/EC50 ([2]; rat liver AMPK, 0.2 mM ATP): 270 | Activation (extrapolated maximal activation) ([2]; rat liver AMPK, 1.0 mM ATP): 2.8 (2.7-2.9) fold | EC50 ([2]; rat liver AMPK, 1.0 mM ATP): 14 µM | IC50 ([2]; rat liver AMPK, 1.0 mM ATP): 6900 µM | IC50/EC50 ([2]; rat liver AMPK, 1.0 mM ATP): 490 | Activation (extrapolated maximal activation) ([2]; rat liver AMPK, 5.0 mM ATP): 3.7 (3.5-3.8) fold | EC50 ([2]; rat liver AMPK, 5.0 mM ATP): 36 µM | IC50 ([2]; rat liver AMPK, 5.0 mM ATP): 17000 µM | IC50/EC50 ([2]; rat liver AMPK, 5.0 mM ATP): ~500 and 470 | degree of activation over basal ([2]; rat liver AMPK, 0.2 to 5 mM ATP): 3- to 4 fold | effect of CD73 in the assay on allosteric activation by the nucleotide ([2]; rat liver AMPK): completely abolished
